Like-named read-outs stand apart in the source and are kept apart here.
How the values were obtained:
guinea pig blood = assay: in vitro haemolysis of total blood, guinea pig
ADENOVIRUS Type 5 = assay: virucidal activity of BKF, AFNOR T72-180, molecular screening (Table 3); type: cell-based; details: 32° C.
Description: We have determined the virucide activity of tetradecyl-dimethyl-benzyl-ammonium fluoride (BKF) vis-a-vis vertebrate viruses in conformance with French Standard AFNOR T72-180, December 1989. This benzalkonium fluoride was diluted in solution in sterile distilled water at the following concentrations: 0.02, 0.01, 0.005% (weight divided by volume).
adenovirid.ae butted.: adenovirus type 5, cultivated on KB cell,
The water, the culture medium and the reagents are those recognised by Standard AFNOR T72-180. The titration of the virus is by reading the cytopathic test, following the method described in Standard AFNOR T72-180. The calculation of the infectious titration is by the FISHER and YATES method with the WYSHAK and DETRE tables. The results are given in number of infectious units per ml, or plaque-forming units per ml (PFU/ml).
The virucidal activity was then determined by the technique known as molecular screening, consisting of filtration on sephadex gel LH 20 and using subcytotoxic concentrations of benzalkonium fluoride. The virucidal activity was determined as a function of contact time between the benzalkonium fluoride and the viral strain. […] The virucidal activity of benzalkonium fluoride (BKF) is determined by the minimal concentration and minimal contact time with the virus which provoked a reduction of infectious titration of the viruses by a logarithmic factor of a least 4. […]

[1] = tested on: activated human PBMC lymphocytes; assay: toxicity of residual BKF (sample REV4) on infectiousness test cells; type: cell-based; details: REV4: BKF 20 μg/ml diluted in NTE buffer and centrifuged
AIDS = details: person
rabbit blood = assay: in vitro haemolysis of total blood, rabbit
dogs (beagles) = assay: local and general tolerance of intravenous administration in dogs, 28 days; details: injected intravenously
human blood = assay: in vitro haemolysis of total blood, human
[2] = in vitro haemolysis of total blood, human; details: human, blood
HIV-1 virus (LAI strain) [3] = assay: residual infectiousness of treated HIV-1 on activated human lymphocytes, antigen P25 ELISA; type: cell-based, HIV-1 (LAI strain); details: 1/2 dilutions, REV7 (30 min) and REV8 (60 min) (FIG. 4)
[4] = tested on: mycobacterium tuberculosis (wild strain); assay: activity in vitro on mycobacterium tuberculosis, B[…] medium surface impregnation method; type: cell-based; parameters: key to culture of Bacterium Tuberculosis: (+++): positive culture; (-): negative culture
Description: We determined the activity in vitro of benzalkonium fluoride on the mycobacterium tuberculosis (wild strain).
This experiment was carried out with the B[…] medium surface impregnation method. The quantity of active substance absorbed by the medium is expressed in cm^2.
The volume of the appropriate dilution of benzalkonium fluoride was 0.25 ml per tube of medium in order to arrive at concentrations of benzalkonium fluoride of 0.1, 0.2 and 0.3% per cm^2 surface of B[…] medium.
A control tube, without benzalkonium fluoride, was used for each of the series.
Three series of tests were carried out with dilutions of 0.1, 0.01 and 0.001 of the mother solution of the Bacterium Tuberculosis strain prepared at 1 mg/ml.
All the tests were carried out in double.

HIV-1 virus (LAI strain) [5] = assay: residual infectiousness of treated HIV-1 on activated human lymphocytes, reverse transcriptase activity; type: cell-based, HIV-1 (LAI strain)
patient's blood = assay: haemolytic concentration on AIDS patients' blood before injection; details: solution used 2.1 g/l
guinea pigs = assay: LD 50, unique administration, Behrens and Karber method, guinea pigs; type: in vivo, albino guinea pig
Description: The high toxicity of benzalkonium fluoride in unique administration in mice and guinea pigs was determined by the Behrens and Karber method, by intracardiac, intravenous and intraperitoneal injection. The animals used were young adult albino mice and albino guinea pigs. Ten animals were used for each dose administered, five males and five females. The benzalkonium fluoride was used in a 3 g/l isotonic solution of sterile apyrogenic sodium chloride. We observed the animals for 7 days after unique administration carried out using a sterile needle adapted to a syringe graduated in 1/10 ml to allow the treatment of each animal with an exact dose. The animals were weighed each day during the observation period.
The LD 50 (lethal dose 50) was determined.

CCCCCCCCCCCCCC[N+](C)(C)Cc1ccccc1.[F-] [benzalkonium fluoride, tetradecyl-dimethyl-benzyl-ammonium fluoride]
haemolysis (degree of red colouring) (guinea pig blood; 37.5 ppm or mg/l): 0 | haemolysis (degree of red colouring) (guinea pig blood; 75 ppm or mg/l): + | haemolysis (degree of red colouring) (guinea pig blood; 150 ppm or mg/l): ++++ | virucidal activity: minimal contact time (ADENOVIRUS Type 5; 0.02% (m/V)): 120 min | virucidal activity: minimal concentration (reduction by logarithmic factor of at least 4) (ADENOVIRUS Type 5; 120 minutes contact): 0.02 % (m/V) | toxicity for the infectiousness test cells [1]: not toxic | pain at the injection point (AIDS; 50 ml at 2.1 g/l every twelve hours, end of second cure): pain at the injection point | number of CD4 (AIDS; after treatment, before: less than 200): 600 | general state (AIDS; fourth month): returned to a normal general state | general state (AIDS; one month and seven months after treatment): a good general state | fever (AIDS; sixth day, 50 ml at 2.1 g/l every eight hours, three days, with Doxycycline): the fever had disappeared | fever, vomiting and diarrhoea (AIDS; tenth day): disappearance of the fever, vomiting and diarrhoea | general state (AIDS; tenth day, two cures of three days): a clear improvement in the general state | weight after gain (AIDS; tenth day, before 57 kg): 59.6 kg | fever (AIDS; third day, 2.1 g/l every twelve hours): a clear fall in the fever | clinical symptoms (AIDS; three and a half months): no clinical symptoms | general state (AIDS; three and a half months): a good general state | weight (AIDS; three and a half months, before 52 kg): 56 kg | number of CD4 (AIDS; three and a half months, before 200): 700 | mobility (AIDS; totally bedridden before): could get up and walk | asthenia (AIDS; two months after start): progressive disappearance of the asthenia | toxicity threshold (D.L.0) (VERO, KB and MCR-5 cells; after filtration): 0.01% | toxicity threshold (D.L.0) (VERO, KB and MCR-5 cells; before filtration): 0.05% | haemolysis (degree of red colouring) (rabbit blood; 37.5 ppm or mg/l): 0 | haemolysis (degree of red colouring) (rabbit blood; 75 ppm or mg/l): + | haemolysis (degree of red colouring) (rabbit blood; 150 ppm or mg/l): +++ | toxic effect, overall (dogs (beagles)): no remarkable toxic effect | haemolysis (human blood; 37.5 mg/l, man, guinea pig and rabbit blood): Not having noted h.ae butted.molysis | haemolysis (degree of red colouring) (human blood; 20 ppm or mg/l, 6 samples): 0 | haemolysis (degree of red colouring) (human blood; 35 ppm or mg/l, 6 samples): 0 | haemolysis (degree of red colouring) (human blood; 37.5 ppm or mg/l): 0 | haemolysis (degree of red colouring) (human blood; 75 ppm or mg/l): + | haemolysis (degree of red colouring) (human blood; 150 ppm or mg/l): ++ | MNTC [2]: ≤ 20 µg/mL | antigen P25 in lymphocyte supernatants (HIV-1 virus (LAI strain) [3]): negative | inhibition of the culture ([4]; 0.1, 0.2 and 0.3% per cm^2, dilutions 0.1, 0.01 and 0.001, four weeks at 37° C.): an inhibition of the culture | culture of Bacterium Tuberculosis ([4]; BKF 0.1%/cm^2, BK dilution 0.001, in double): (-) | culture of Bacterium Tuberculosis ([4]; BKF 0.1%/cm^2, BK dilution 0.01, in double): (-) | culture of Bacterium Tuberculosis ([4]; BKF 0.1%/cm^2, BK dilution 0.1, in double): (-) | culture of Bacterium Tuberculosis ([4]; BKF 0.2%/cm^2, BK dilution 0.001, in double): (-) | culture of Bacterium Tuberculosis ([4]; BKF 0.2%/cm^2, BK dilution 0.01, in double): (-) | culture of Bacterium Tuberculosis ([4]; BKF 0.2%/cm^2, BK dilution 0.1, in double): (-) | culture of Bacterium Tuberculosis ([4]; BKF 0.3%/cm^2, BK dilution 0.001, in double): (-) | culture of Bacterium Tuberculosis ([4]; BKF 0.3%/cm^2, BK dilution 0.01, in double): (-) | culture of Bacterium Tuberculosis ([4]; BKF 0.3%/cm^2, BK dilution 0.1, in double): (-) | RT activity in culture supernatants (HIV-1 virus (LAI strain) [5]; 1/2 dilution of virus treated with BKF, second experiment (FIG. 2)): No RT activity was detected | reverse transcriptase activity in culture supernatants (HIV-1 virus (LAI strain) [5]; 1/10 dilution of virus treated with BKF 20 μg/ml for 30 or 60 minutes (FIG. 1)): no reverse transcriptase activity is revealed | log reduction at 20 µg/mL (HIV-1 virus (LAI strain) [5]; Human immunodeficiency virus 1, Lymphocyte, 20 μg/ml, activated human lymphocytes, read-out: loss of infectious capacity in the HIV-1 virus): 5 | haemolytic concentration on patient's blood (patient's blood): well above that of the solution used | LD 50 (guinea pigs; female guinea pig, intracardiac): 16.50 mg/mL | LD 50 (guinea pigs; female guinea pig, intraperitoneal): 20.50 mg/mL | LD 50 (guinea pigs; male guinea pig, intracardiac): 15.50 mg/mL | LD 50 (guinea pigs; male guinea pig, intraperitoneal): 28.50 mg/mL
